Data: patent US20170190705A1, “Compositions and Methods for Inhibiting BMP” (THE BRIGHAM AND WOMAN'S HOSPITAL, INC., priority 2014, published 2017)
Read-outs that look alike come from different tables or passages of the source.

Assays:
JAK1 = JAK1 (Homo sapiens, UniProt P23458); assay: Kinome profiling JAK1; type: biochemical; settings: read-out: Inhibitory activity JAK1; for inhibition at 0.1 µM: 100 nM
Description: (§1) . The kinome-wide selectivity was determined following the methods previously reported by Mohedas et al., ACS Chem Biol 2013, 8, 1291-1302 and Sanvitale et al., PLoS One 2013, 8, e62721.

TYK2 = TYK2 (Homo sapiens, UniProt P29597); assay: Kinome profiling TYK2; type: biochemical; settings: read-out: Inhibitory activity TYK2; for inhibition at 0.1 µM: 100 nM
Description: as §1

EGFR = EGFR (Homo sapiens, UniProt P00533); assay: Kinome profiling EGFR; type: biochemical; settings: read-out: Inhibitory activity EGFR; for inhibition at 0.1 µM: 100 nM
Description: as §1

FGFR2 = FGFR2 (Homo sapiens, UniProt P21802); assay: Kinome profiling FGFR2; type: biochemical; settings: read-out: Inhibitory activity FGFR2; for inhibition at 0.1 µM: 100 nM
Description: as §1

PIM-1 = PIM-1 (Homo sapiens, UniProt P11309); assay: Kinome profiling PIM-1; type: biochemical; settings: read-out: Inhibitory activity PIM-1; for inhibition at 0.1 µM: 100 nM
Description: as §1

ROS = ROS (Homo sapiens, UniProt P08922); assay: Kinome profiling ROS; type: biochemical; settings: read-out: Inhibitory activity ROS; for inhibition at 0.1 µM: 100 nM
Description: as §1

CHEK1 = molecular target: T1, CHEK1 (Homo sapiens, UniProt O14757); assay: Kinome profiling CHEK1; type: biochemical; settings: read-out: Inhibitory activity CHEK1; for inhibition at 0.1 µM: 100 nM
T1 sequence (O14757 1-476): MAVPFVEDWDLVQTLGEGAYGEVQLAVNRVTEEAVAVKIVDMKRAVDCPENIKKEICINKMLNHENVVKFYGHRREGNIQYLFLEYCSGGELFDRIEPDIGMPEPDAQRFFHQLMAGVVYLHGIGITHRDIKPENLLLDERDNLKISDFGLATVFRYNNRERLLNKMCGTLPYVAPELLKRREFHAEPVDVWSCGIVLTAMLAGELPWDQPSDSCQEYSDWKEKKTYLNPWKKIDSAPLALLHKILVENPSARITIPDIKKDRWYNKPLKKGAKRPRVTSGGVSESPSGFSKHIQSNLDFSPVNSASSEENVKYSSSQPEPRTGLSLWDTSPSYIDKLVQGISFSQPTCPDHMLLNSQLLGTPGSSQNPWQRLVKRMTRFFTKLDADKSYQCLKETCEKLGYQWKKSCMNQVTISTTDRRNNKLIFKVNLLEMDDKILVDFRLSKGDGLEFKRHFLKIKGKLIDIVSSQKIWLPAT
Description: as §1

PKA = PKA (Homo sapiens, UniProt P17612); assay: Kinome profiling PKA; type: biochemical; settings: read-out: Inhibitory activity PKA; for inhibition at 0.1 µM: 100 nM
Description: as §1

TSSK2 = molecular target: T2, TSSK2 (Homo sapiens, UniProt Q96PF2); assay: Kinome profiling TSSK2; type: biochemical; settings: read-out: Inhibitory activity TSSK2; for inhibition at 0.1 µM: 100 nM
T2 sequence (Q96PF2 1-358): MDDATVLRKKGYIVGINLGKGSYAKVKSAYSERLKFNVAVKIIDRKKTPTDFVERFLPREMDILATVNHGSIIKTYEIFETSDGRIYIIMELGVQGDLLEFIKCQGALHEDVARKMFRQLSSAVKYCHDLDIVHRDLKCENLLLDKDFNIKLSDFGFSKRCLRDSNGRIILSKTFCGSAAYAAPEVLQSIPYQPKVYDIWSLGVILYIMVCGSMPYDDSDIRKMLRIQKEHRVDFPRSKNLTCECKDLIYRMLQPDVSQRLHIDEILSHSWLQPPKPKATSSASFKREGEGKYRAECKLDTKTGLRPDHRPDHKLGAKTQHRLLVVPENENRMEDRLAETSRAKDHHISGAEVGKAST
Description: as §1

LCK = LCK (Homo sapiens, UniProt P06239); assay: Kinome profiling LCK; type: biochemical; settings: for inhibition at 0.1 µM: 100 nM
Description: as §1

caALK2 = molecular target: T3, caALK2 (Homo sapiens, UniProt Q04771, Q207D); assay: Luciferase reporter assay constitutively active ALK2; type: cell-based
T3 construct: expressed in transfected cells; host or cells: C2C12 BRE-Luc cells infected with adenovirus (MOI 100)
Description: The cells were incubated for 1 h (37° C. and 10% CO2) and allowed to settle and attach. Compounds of interest or DMSO were diluted in DMEM and added at final compound concentrations of 1 nM to 10 μM. Cells were then incubated for 30 min. Adenovirus expressing constitutively active BMP and TGF-β type I receptors (Ad.caALK1-5), generously provided by Dr. Akiko Hata (University of to California at San Francisco), were added to achieve a multiplicity of infection (MOI) of 100. Plates were incubated overnight at 37° C. Cell viability was assayed with an MIT (3-(4,5-dimethylthiazol-2-yl)-2,5-diphenyl tetrazolium bromide) colorimetric assay (Promega) per the manufacturer's instructions. Media was discarded, and firefly luciferase activity was measured (Promega) according to manufacturer's protocol. Light output was measured using a Spectramax L luminometer (Molecular Devices) with an integration time of one second per well. Data was normalized to 100% of incremental BRE-Luc activity due to adenoviruses specifying caALK1, 2, or 3, or the incremental CAGA-Luc activity due to adenoviruses specifying caALK4 or 5.

PLK1 = PLK1 (Homo sapiens, UniProt P53350); assay: Kinome profiling PLK1; type: biochemical; settings: read-out: Inhibitory activity PLK1; for inhibition at 0.1 µM: 100 nM
Description: as §1

SRC = SRC (Homo sapiens, UniProt P12931); assay: Kinome profiling SRC; type: biochemical; settings: read-out: Inhibitory activity SRC; for inhibition at 0.1 µM: 100 nM
Description: as §1

MKNK1 = MKNK1 (Homo sapiens, UniProt Q9BUB5); assay: Kinome profiling MKNK1; type: biochemical; settings: read-out: Inhibitory activity MKNK1; for inhibition at 0.1 µM: 100 nM
Description: as §1

LYNA = LYNA (Homo sapiens, UniProt P07948); assay: Kinome profiling LYNA; type: biochemical; settings: read-out: Inhibitory activity LYNA; for inhibition at 0.1 µM: 100 nM
Description: as §1

[1] = Table 4, read-out: Inhibitory Activity LCK
[2] = read-out: Inhibitory activity LCK

Chain of PLK1 (P53350 whole entry): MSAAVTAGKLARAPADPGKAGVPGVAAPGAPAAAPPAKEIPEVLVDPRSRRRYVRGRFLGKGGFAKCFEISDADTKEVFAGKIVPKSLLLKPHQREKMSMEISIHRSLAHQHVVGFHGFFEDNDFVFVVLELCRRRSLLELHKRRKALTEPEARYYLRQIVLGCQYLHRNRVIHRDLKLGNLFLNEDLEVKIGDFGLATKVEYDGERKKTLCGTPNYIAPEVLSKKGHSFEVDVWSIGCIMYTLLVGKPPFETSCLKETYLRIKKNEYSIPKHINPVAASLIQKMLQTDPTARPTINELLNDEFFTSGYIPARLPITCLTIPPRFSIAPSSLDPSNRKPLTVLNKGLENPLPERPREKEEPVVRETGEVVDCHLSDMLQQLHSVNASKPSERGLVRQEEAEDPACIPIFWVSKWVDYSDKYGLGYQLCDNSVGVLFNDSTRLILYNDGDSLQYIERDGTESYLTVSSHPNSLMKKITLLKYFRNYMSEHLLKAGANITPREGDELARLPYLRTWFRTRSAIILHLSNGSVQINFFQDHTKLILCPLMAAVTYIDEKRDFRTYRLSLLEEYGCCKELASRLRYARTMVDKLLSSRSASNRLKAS
Chain of MKNK1 (Q9BUB5 whole entry): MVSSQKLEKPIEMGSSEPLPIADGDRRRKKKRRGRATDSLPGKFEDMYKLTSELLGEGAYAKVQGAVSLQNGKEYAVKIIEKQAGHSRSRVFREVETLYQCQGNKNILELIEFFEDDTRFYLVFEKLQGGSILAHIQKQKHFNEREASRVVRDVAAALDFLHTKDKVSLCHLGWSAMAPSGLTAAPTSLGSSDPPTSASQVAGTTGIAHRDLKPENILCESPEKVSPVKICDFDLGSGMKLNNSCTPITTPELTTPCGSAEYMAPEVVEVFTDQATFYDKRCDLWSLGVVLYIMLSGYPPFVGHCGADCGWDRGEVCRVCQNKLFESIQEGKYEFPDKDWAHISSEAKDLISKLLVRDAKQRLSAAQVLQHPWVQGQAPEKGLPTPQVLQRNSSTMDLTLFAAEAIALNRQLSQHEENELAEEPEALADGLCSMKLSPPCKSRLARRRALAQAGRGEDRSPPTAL
Chain of ROS (P08922 28-2347): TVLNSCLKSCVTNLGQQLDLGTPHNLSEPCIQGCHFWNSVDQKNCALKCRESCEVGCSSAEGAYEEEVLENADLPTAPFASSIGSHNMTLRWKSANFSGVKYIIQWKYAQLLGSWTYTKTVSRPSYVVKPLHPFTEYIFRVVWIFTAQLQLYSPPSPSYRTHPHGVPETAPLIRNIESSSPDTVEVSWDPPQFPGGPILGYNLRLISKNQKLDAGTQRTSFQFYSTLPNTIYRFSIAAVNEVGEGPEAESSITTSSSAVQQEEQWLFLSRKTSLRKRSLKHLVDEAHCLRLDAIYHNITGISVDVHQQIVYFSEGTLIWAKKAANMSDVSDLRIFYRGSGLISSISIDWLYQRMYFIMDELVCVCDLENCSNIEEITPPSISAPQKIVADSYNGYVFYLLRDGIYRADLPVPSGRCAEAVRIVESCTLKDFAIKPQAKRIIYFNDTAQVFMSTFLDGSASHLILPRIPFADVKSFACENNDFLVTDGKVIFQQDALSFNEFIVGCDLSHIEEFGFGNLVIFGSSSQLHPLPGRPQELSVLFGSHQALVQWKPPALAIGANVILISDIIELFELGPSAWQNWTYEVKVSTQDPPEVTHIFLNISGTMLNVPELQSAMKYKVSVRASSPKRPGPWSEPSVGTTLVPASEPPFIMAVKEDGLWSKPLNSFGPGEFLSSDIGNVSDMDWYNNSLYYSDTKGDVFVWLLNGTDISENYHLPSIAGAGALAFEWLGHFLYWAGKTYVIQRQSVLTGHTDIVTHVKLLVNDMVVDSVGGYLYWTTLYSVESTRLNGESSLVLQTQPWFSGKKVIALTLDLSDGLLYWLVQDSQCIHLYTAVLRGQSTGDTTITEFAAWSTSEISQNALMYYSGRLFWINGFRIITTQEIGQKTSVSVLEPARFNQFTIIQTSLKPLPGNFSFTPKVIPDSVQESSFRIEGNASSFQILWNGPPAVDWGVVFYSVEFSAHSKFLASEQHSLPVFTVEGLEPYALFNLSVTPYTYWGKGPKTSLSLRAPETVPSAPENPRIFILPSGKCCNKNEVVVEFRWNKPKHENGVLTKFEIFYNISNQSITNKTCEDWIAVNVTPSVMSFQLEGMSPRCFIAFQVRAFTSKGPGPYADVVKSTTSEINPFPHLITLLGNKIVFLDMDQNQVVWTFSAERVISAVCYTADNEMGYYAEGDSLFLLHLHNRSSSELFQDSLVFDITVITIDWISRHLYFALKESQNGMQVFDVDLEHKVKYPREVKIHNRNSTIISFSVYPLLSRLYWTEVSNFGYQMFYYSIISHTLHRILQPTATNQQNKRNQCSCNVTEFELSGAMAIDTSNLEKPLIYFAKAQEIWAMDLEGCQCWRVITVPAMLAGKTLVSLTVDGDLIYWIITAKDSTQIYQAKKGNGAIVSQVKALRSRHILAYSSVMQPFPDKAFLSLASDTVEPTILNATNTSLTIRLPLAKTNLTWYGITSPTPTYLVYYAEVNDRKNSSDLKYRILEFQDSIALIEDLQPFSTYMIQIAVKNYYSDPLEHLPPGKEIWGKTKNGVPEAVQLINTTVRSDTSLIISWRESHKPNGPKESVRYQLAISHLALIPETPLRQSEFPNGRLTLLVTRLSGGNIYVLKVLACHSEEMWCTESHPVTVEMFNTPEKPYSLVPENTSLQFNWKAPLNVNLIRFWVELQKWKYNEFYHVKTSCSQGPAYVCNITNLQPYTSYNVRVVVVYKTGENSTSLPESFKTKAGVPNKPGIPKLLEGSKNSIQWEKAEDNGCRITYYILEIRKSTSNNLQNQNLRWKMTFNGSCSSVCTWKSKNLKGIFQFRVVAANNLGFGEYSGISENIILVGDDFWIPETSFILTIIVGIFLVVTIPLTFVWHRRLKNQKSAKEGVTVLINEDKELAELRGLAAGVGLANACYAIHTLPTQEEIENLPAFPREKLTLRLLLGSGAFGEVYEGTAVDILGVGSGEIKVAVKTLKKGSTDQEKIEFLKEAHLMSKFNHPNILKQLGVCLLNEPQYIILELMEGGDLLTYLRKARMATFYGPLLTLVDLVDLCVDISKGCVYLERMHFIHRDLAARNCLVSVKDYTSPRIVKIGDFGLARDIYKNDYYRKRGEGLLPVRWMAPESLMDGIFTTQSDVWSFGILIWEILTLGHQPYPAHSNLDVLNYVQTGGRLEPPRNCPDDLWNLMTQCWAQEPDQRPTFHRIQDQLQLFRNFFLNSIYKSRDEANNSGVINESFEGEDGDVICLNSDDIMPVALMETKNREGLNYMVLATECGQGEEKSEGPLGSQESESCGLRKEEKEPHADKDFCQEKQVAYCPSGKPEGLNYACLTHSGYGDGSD
Chain of SRC (P12931 whole entry): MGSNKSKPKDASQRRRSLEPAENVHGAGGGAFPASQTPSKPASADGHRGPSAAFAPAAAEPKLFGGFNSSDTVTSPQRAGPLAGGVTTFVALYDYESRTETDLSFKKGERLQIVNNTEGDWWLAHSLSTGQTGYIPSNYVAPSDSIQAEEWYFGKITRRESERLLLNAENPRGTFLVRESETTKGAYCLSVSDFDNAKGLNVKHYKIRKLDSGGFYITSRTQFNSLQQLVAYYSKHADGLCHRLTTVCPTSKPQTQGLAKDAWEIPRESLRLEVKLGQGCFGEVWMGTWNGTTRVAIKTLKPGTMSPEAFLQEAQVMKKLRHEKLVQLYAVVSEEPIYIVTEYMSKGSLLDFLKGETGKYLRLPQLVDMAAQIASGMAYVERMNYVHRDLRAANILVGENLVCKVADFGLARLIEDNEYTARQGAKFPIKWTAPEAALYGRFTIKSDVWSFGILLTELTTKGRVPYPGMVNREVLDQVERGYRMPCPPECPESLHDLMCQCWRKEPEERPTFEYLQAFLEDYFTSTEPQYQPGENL
Chain of JAK1 (P23458 whole entry): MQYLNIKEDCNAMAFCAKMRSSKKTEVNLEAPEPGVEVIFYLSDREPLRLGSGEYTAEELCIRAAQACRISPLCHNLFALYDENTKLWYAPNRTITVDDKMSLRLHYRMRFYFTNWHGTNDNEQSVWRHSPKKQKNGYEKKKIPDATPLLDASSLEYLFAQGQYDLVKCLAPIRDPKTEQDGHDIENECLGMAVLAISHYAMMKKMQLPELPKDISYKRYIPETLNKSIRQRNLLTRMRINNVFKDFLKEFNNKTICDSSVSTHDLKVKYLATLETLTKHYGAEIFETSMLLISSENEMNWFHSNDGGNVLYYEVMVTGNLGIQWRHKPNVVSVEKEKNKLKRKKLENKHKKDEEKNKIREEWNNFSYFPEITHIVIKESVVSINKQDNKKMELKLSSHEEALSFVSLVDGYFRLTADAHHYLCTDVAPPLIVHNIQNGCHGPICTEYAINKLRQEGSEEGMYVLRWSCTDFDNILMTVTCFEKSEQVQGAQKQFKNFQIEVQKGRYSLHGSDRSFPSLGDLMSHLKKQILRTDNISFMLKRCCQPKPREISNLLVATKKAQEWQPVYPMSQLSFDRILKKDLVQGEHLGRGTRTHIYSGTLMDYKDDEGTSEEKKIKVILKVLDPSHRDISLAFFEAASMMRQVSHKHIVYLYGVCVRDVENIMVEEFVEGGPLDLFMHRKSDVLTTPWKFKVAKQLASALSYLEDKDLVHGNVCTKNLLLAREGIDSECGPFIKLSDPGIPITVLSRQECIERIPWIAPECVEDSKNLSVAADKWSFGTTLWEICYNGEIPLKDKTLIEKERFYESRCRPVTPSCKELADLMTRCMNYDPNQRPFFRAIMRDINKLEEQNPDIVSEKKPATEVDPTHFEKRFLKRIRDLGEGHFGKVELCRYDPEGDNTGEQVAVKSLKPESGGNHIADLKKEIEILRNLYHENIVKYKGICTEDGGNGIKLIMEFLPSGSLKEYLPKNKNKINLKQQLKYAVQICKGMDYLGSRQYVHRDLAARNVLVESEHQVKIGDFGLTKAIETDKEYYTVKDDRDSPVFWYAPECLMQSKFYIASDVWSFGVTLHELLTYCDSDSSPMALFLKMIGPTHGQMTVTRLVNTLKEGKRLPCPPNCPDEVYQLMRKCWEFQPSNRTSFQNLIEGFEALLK

Row | Structure (SMILES) | inhibition at 0.1 µM (JAK1) [%] | inhibition at 1 µM (JAK1) [%] | inhibition at 0.1 µM (TYK2) [%] | inhibition at 1 µM (TYK2) [%] | inhibition at 0.1 µM (EGFR) [%] | inhibition at 1 µM (EGFR) [%] | inhibition at 0.1 µM (FGFR2) [%] | inhibition at 1 µM (FGFR2) [%] | inhibition at 0.1 µM (PIM-1) [%] | inhibition at 1 µM (PIM-1) [%] | inhibition at 0.1 µM (ROS) [%] | inhibition at 1 µM (ROS) [%] | inhibition at 0.1 µM (CHEK1) [%] | inhibition at 1 µM (CHEK1) [%] | inhibition at 0.1 µM (PKA) [%] | inhibition at 1 µM (PKA) [%] | inhibition at 0.1 µM (TSSK2) [%] | inhibition at 1 µM (TSSK2) [%] | inhibition at 0.1 µM (LCK; [2]) [%] | inhibition at 1 µM (LCK; [2]) [%] | also measured
1 | COc1cc(-c2cc(-c3ccc(N4CCNCC4)cc3)cnc2C)cc(OC)c1OC [Compound 10, 1-(4-(6-methyl-5-(3,4,5-trimethoxyphenyl)pyridin-3-yl)phenyl)piperazine] | 2 | 2 | 2 | 1 | 3 | 16 | -1 | 0 | 1 | 0 | 2 | 2 | 4 | -3 | 1 | 3 | 4 | 4 | 21 | 65 | inhibition at 0.1 µM (LCK; [1]): 21%; inhibition at 1 µM (LCK; [1]): 65%; potency (caALK2; comparison across multiple assays (Tables 6 and 7)): reduction in potency; inhibition at 0.1 µM (PLK1): 4%; inhibition at 1 µM (PLK1): 3%; inhibition at 0.1 µM (SRC): 8%; inhibition at 1 µM (SRC): 23%; inhibition at 0.1 µM (MKNK1): 3%; inhibition at 1 µM (MKNK1): 5%; inhibition at 0.1 µM (LYNA): 3%; inhibition at 1 µM (LYNA): 29%
2 | COc1cc(-c2cc(-c3ccc(N4CCNCC4)cc3)cnc2N)cc(OC)c1OC [Compound 15, 5-(4-(piperazin-1-yl)phenyl)-3-(3,4,5-trimethoxyphenyl)pyridin-2-amine] | 1 | 0 | 0 | 0 | 8 | 37 | 2 | 5 | 0 | -1 | 1 | 7 | 2 | 6 | 1 | 2 | 1 | 1 | 65 | 86 | IC50 (caALK2; read-out: Cell Based Assay caALK2 IC50): 5 nM; inhibition at 0.1 µM (PLK1): 3%; inhibition at 1 µM (PLK1): 1%; inhibition at 0.1 µM (SRC): 40%; inhibition at 1 µM (SRC): 81%; inhibition at 0.1 µM (MKNK1): 3%; inhibition at 1 µM (MKNK1): 5%; inhibition at 0.1 µM (LYNA): 41%; inhibition at 1 µM (LYNA): 84%
